This is an account of results in patent US5462965A, “Use of heterocyclic amino-alcohol compounds for treatment of CNS diseases” (GD Searle & Co., priority 1992, dated 1995).

For the first test, the target named is NMDA receptor-ionophore complex (polyamine domain / NMDA ionophore). Kind of test: Spermidine (polyamine)-stimulated [3H]TCP binding, functional model of coupling of the polyamine domain to the NMDA ionophore. The conditions noted are these: spermidine-stimulated [3H]TCP binding, rat cortex; at least two independent experiments. Here is the method: Polyamine-stimulated [^3 H]TCP: Crude synaptic ("buffy coat") membranes were prepared from freshly dissected cerebral cortices. Membrane preparations were extensively washed employing 3 freeze-thaw cycles. The final pellet was stored at -70° C. for 1-7 days prior to assay. On the day of assay, the membrane pellet was washed twice by resuspension and centrifugation (45,000 g, 10 min. ). […] Assays were terminated by rapid vacuum filtration through GF/B filter paper (pre-soaked in 0.5% aqueous polyethyleneimine) in a Brandel M-48R Cell Harvester and thorough washing with ice-cold 5 mM Tris HCl pH 7.7.
In turn, `CC(C(O)c1ccc(O)cc1)N1CCC(Cc2ccccc2)CC1` (stereo not drawn) [Ifenprodil, reference compound] came in with an IC50 of 6.8 µM.

Another test concerns NMDA receptor complex.
Experiment: not given
The conditions noted are these: [3H]TCP and [3H]dizocilpine (MK-801); cited from earlier work.
Take `NCCCNCCCCNCCCN` [spermine, reference compound]: the “effect on binding of channel ligands” value is given as “profoundly enhance the binding of channel ligands”.
Turning to `NCCCCNCCCN` [spermidine, reference compound], the “effect on binding of channel ligands” value is “profoundly enhance the binding of channel ligands”.

Tested on in a further test: not given
Experiment: not given
As to conditions: in certain cases and mostly high doses; cited from earlier work.
On to `CCCCN(C)CC(O)c1ccc2c(c1)CCC2` (stereo not drawn) [1-(5-indanyl)-2-amino-N,N-n-butyl-methylethanol], for which the CNS-activity result was “in certain cases and mostly high doses posess a CNS-activity”.
As for `OC(CN1CCN(Cc2ccccc2)CC1)c1ccc2c(c1)CCC2` (stereo not drawn) [1-(5-indanyl)-2-amino-N-phenylmethylpiperazinoethanol], the CNS-activity entry was “in certain cases and mostly high doses posess a CNS-activity”.
In the case of `OC(CNC1CCCCCC1)c1ccc2c(c1)CCC2` (stereo not drawn) [1-(5-indanyl)-2-amino-N-cycloheptyl-ethanol], the CNS-activity entry was “in certain cases and mostly high doses posess a CNS-activity”.

Another test relates to polyamine domain of the NMDA receptor-complex. Kind of test: Binding of [125I]ifenprodil to rat cortical membranes (polyamine domain interaction). As to conditions: 16.7 μM SL 82.0715. On the procedure:
The NMDA receptor-ionophore complex consists of a number of interacting domains, including one for polyamines where ifenprodil binds to exert its noncompetitive antagonism. Ifenprodil was iodinated with Na^125 I/chloramine-T, purified and its binding characterized.
(§1) Membranes were prepared from freshly dissected brains of adult male Sprague-Dawley rats (175-250 g).
^125 I]Ifenprodil: Crude membranes were prepared from freshly dissected cerebral cortices as described elsewhere [P. M. Beart et al, Neurosci. Lett., 124, 187-189 (1991)]. Briefly, assays were performed in 5 mM Tris HCl pH 7.7 containing [^125 I]ifenprodil (20,000 dpms, ~20 pM) and cortical membranes (0.5 mg wet wt.) in a final volume of 0 5 mL Incubations were for 30 min at 20° C., in triplicate, employing 12 concentrations of competing drugs. Non-specific binding was defined with 10 mM spermine. Assays were terminated by rapid filtration through GF/B filter paper and washing [Beart et al, Id., (1991)].
Binding data were analyzed by the iterative curve fitting programs EBDA and LIGAND as fully described elsewhere [Beart et al, Id., (1989)].
As for `OC(CN1CCC(Cc2ccc(F)cc2)CC1)c1ccc(Cl)cc1` (stereo not drawn) [SL82.0715, reference compound], the “dissociability of [125I]ifenprodil specific binding” value is “poorly dissociable”.

The same test, now with this note: 1 mM spermine.
Consider `NCCCNCCCCNCCCN` [spermine, reference compound], for which the “dissociability of [125I]ifenprodil specific binding” value was “dissociable”.

Staying with this test, now noted: n=3; read-out: dissociation constant of SL82.0715 ([125I]ifenprodil binding).
Consider `OC(CN1CCC(Cc2ccc(F)cc2)CC1)c1ccc(Cl)cc1` (stereo not drawn) [SL82.0715, reference compound], for which the Kd was determined as 2.3 ± 0.13 µM.

The test is the same for the next values; noted with them: n=4 (spermine), n=3 (spermidine); read-out: dissociation constants for spermine and spermidine (inhibition of specific [125I]ifenprodil binding).
Consider `NCCCNCCCCNCCCN` [spermine, reference compound], for which the Kd is 24 µM.
On the same count and under the same terms, then `NCCCCNCCCN` [spermidine, reference compound], with 44 µM.

The same test, now with this note: rat cortical membranes; mean ± s.e.m., n = 3 or 4; read-out: [125I] IFENPRODIL Kd.
Turning to `CC(C(O)c1ccc2c(c1)CCCS2)N1CCC(Cc2ccccc2)CC1` (stereo not drawn) [Compound 26], the Kd came to 12 µM.
As to `CC(C(O)c1ccc(O)cc1)N1CCC(Cc2ccccc2)CC1` (stereo not drawn) [Ifenprodil, reference compound], the Kd turned out to be 0.15 ± 0.03 µM.
On the same count and under the same terms, then `OC(CN1CCC(Cc2ccc(F)cc2)CC1)c1ccc(Cl)cc1` (stereo not drawn) [SL82.0715, reference compound], with 2.3 ± 0.1 µM.

The next test has as its system sigma site.
Experiment: not given
As to conditions: J. Benavides et al, 1990; cited from earlier work.
`CC(C(O)c1ccc(O)cc1)N1CCC(Cc2ccccc2)CC1` (stereo not drawn) [Ifenprodil, reference compound]: the “sigma binding affinity in vivo” value is recorded as “Sigma binding affinity has also been found in vivo”.

The subject of another test is sigma site. Kind of test: Sigma site binding: inhibition of R(+)-[3H]3-PPP binding. Also on record: species or system rat. As to conditions: in words. On the procedure:
as §1
R(+-^3 H]3-PPP: Crude membranes were prepared from whole brain (minus cerebellum) as described previously [P. M. Beart et al, J. Neurochem., 53, 779-788 (1989)]. A filtration binding assay was employed under similar conditions to those of Largent et al (1986) with 3 nM R (+)-[^3 H]-3-PPP and a 90 min. incubation at 25° C. (Beart et al, 1989). Non-specific binding was defined with 10 μ1,3-di(2-tolyl)guanidine (DTG).
Binding data were analyzed by the iterative curve fitting programs EBDA and LIGAND as fully described elsewhere [Beart et al, Id., (1989)]. Results obtained from experiments examining spermidine-stimulated binding of ^3 H]TCP were analyzed by the program FLEXIFIT [V. Guardabasso et al, FASEB J., 2, 209-215 (1988)] which iteratively fits data to a sigmoidal model providing estimates of IC50 and slope for the drug under study.
Regarding `CC(C(O)c1ccc(O)cc1)N1CCC(Cc2ccccc2)CC1` (stereo not drawn) [Ifenprodil, reference compound], the “model describing the interaction with the site labelled by R(+)-[3H]3-PPP” value is “better described by a two-site model”.

Staying with this test, now noted: one site fit; pooled data, n = 2 independent experiments; read-out: KG = Dissociation constant for one site fit.
With `C=CCN1CCC2(C)c3cc(O)ccc3CC1C2C` (single isomer, unassigned; (+)) [(+)SKF10.047, N-allylnormetazocine, reference compound], the Kd came to 1.5 µM.
Same read-out and setting: next, `CC(C(O)c1ccc(O)cc1)N1CCC(Cc2ccccc2)CC1` (stereo not drawn) [Ifenprodil, reference compound]: 0.02 µM.

The test is the same for the next values; noted with them: two site fit, fitted better to 2 site model (P < 0.05).
Turning to `C=CCN1CCC2(C)c3cc(O)ccc3CC1C2C` (single isomer, unassigned; (+)) [(+)SKF10.047, N-allylnormetazocine, reference compound], the “% RH = Percent of high affinity binding sites for two site fit” value is 60%.
With `CC(C(O)c1ccc(O)cc1)N1CCC(Cc2ccccc2)CC1` (stereo not drawn) [Ifenprodil, reference compound], the “% RH = Percent of high affinity binding sites for two site fit” value is recorded as 82%.

The test is the same for the next values; noted with them: two site fit, fitted better to 2 site model (P < 0.05); read-out: KH = Dissociation constant at high affinity site for two site fit.
As to `C=CCN1CCC2(C)c3cc(O)ccc3CC1C2C` (single isomer, unassigned; (+)) [(+)SKF10.047, N-allylnormetazocine, reference compound], the Kd was determined as 0.048 µM.
In the case of `CC(C(O)c1ccc(O)cc1)N1CCC(Cc2ccccc2)CC1` (stereo not drawn) [Ifenprodil, reference compound], the Kd stood at 0.011 µM.

The same test, now with this note: two site fit, fitted better to 2 site model (P < 0.05); read-out: KL = Dissociation constant at low affinity site for two site fit.
For the compound `C=CCN1CCC2(C)c3cc(O)ccc3CC1C2C` (single isomer, unassigned; (+)) [(+)SKF10.047, N-allylnormetazocine, reference compound], the Kd came out at 6.3 µM.
Still for that read-out and setting: then `CC(C(O)c1ccc(O)cc1)N1CCC(Cc2ccccc2)CC1` (stereo not drawn) [Ifenprodil, reference compound], with 19 µM.

Another test deals with sigma site.
Experiment: not given
The conditions noted are these: P. C. Contreras et al, 1990; cited from earlier work.
Regarding `CC(C(O)c1ccc(O)cc1)N1CCC(Cc2ccccc2)CC1` (stereo not drawn) [Ifenprodil, reference compound], the “affinity for the sigma site in vitro” value is on record as “considerable affinity”.

A further test concerns NMDA receptor.
Experiment: not given
The conditions noted are these: C. Carter et al, 1988; cited from earlier work.
For “1-(4chlorophenyl)-2-[1-(4-fluorophenyl)piperidinyl]ethanol”, the NMDA receptor antagonism result is reported as “noncompetitive NMDA receptor antagonists”.
Consider `CC(C(O)c1ccc(O)cc1)N1CCC(Cc2ccccc2)CC1` (stereo not drawn) [Ifenprodil, reference compound], for which the NMDA receptor antagonism entry was “noncompetitive NMDA receptor antagonists”.

As a reminder, the IC50 is the concentration needed to halve the response being measured. The low end stands for greater potency, the high end for weaker potency.
